pEC50, pIC50, pKi: −log10 of the molar value. Values after ≈ are worked out from the molar mass of the structure shown.
Columns and labels:
[1] = target: T1, Human immunodeficiency virus type 1 reverse transcriptase (Human immunodeficiency virus 1, UniProt Q72547); assay: Inhibition of wild type HIV-1 Reverse transcriptase
[2] = tested on: Human immunodeficiency virus 1; assay: Antiviral activity against wild-type HIV-1 IIIB infected in human MT4 cells assessed as reduction in virus-induced cytopathic effect incubated for 5 days by MTT assay; type: functional, organism-based; details: Human immunodeficiency virus 1, IIIB, MT4, 120 h
[3] = tested on: MT4; assay: Cytotoxicity against human MT4 cells assessed as reduction in cell growth after 5 days by MTT assay; type: functional; details: MT4, 120 h, time 5 day
[4] = tested on: Human immunodeficiency virus 1; assay: Antiviral activity against wild type HIV-1 NL4-3 infected in human MT4 cells assessed as reduction in viral replication measured for 72 hrs by ELISA analysis; type: functional, organism-based; details: Human immunodeficiency virus 1, NL4-3, MT4, 72 h
[5] = Binding affinity to HIV-1 reverse transcriptase Y181L mutant assessed as inhibition constant; set-up: species or system Human immunodeficiency virus 1
[6] = target: T2, Reverse transcriptase (Human immunodeficiency virus 1, UniProt Q9WKE8, K103N); assay: Binding affinity to HIV-1 reverse transcriptase K103N mutant assessed as inhibition constant
[7] = tested on: Human immunodeficiency virus 1; assay: Antiviral activity against wild type HIV-1 NL4-3 infected in human MT4 cells assessed as reduction in viral replication; type: functional, organism-based; details: Human immunodeficiency virus 1, NL4-3, MT4; read-out: EC50
[8] = tested on: Human immunodeficiency virus 1; assay: Antiviral activity against HIV-1 NL4-3 harboring infected Y181C mutant infected in human MT4 cells assessed as reduction in viral replication; type: functional, organism-based; details: Human immunodeficiency virus 1, NL4-3, MT4
[9] = tested on: Human immunodeficiency virus 1; assay: Antiviral activity against HIV-1 NL4-3 harboring infected K103N mutant infected in human MT4 cells assessed as reduction in viral replication; type: functional, organism-based; details: Human immunodeficiency virus 1, NL4-3, MT4
[10] = tested on: Human immunodeficiency virus 1; assay: Antiviral activity against NNRTI-resistant HIV-1 harboring E138K mutant infected in human MT4 cells assessed as protection against virus-induced cytopathic effect by MTT assay; type: functional, organism-based; details: Human immunodeficiency virus 1, MT4
[11] = target: T2, Reverse transcriptase; assay: Inhibition of HIV-1 Reverse transcriptase K103N mutant
[12] = tested on: Human immunodeficiency virus 1; assay: Antiviral activity against HIV-1 NL4-3 harboring infected Y188L mutant infected in human MT4 cells assessed as reduction in viral replication; type: functional, organism-based; details: Human immunodeficiency virus 1, NL4-3, MT4
[13] = Selectivity index, ratio of CC50 for human MT4 cells to EC50 for antiviral activity against HIV1 infected in human MT4 cells; type: toxicity, cell-based; details: read-out: Ratio CC50/EC50
[14] = tested on: MT4; assay: Cytotoxicity against human MT4 cells assessed as reduction in […] incubated for 4 days by MTT assay; type: functional; details: MT4, 96 h, time 4 day
[15] = tested on: Human immunodeficiency virus 1; assay: Antiviral activity against HIV1 IIIB infected in human MT4 cells assessed as reduction in virus-induced cytopathic effect incubated for 4 days by MTT assay; type: functional, organism-based; details: Human immunodeficiency virus 1, IIIB, MT4, 96 h
[16] = tested on: Human immunodeficiency virus 1; assay: Antiviral activity against wild type HIV-1 IIIB infected in human MT4 cells assessed as protection against virus-induced cytopathic effect incubated for 5 days by MTT assay; type: functional; details: Human immunodeficiency virus 1, IIIB, MT4, 120 h; time 5 day; read-out: ED50 (the source's name)
[17] = tested on: Human immunodeficiency virus 1; assay: Antiviral activity against HIV-1 3B infected in human MT4 cells assessed as reduction in viral replication incubated for 5 days by MTT assay; type: functional, organism-based; details: Human immunodeficiency virus 1, 3B, MT4, 120 h
[18] = tested on: MT4; assay: Cytotoxicity against human MT4 cells assessed as reduction in cell growth incubated for 5 days by MTT assay; type: functional; details: MT4, 120 h, time 5 day
[19] = Cytotoxicity against human PBMC cells; type: toxicity, cell-based
[20] = Toxicity in African green monkey Vero cells assessed as reduction in cell viability incubated for 72 hrs by MTT assay; type: cell-based; details: chlorocebus sabaeus, read-out: TD50
[21] = Toxicity in human C8166 cells assessed as reduction in cell viability incubated for 72 hrs by MTT assay; type: cell-based; details: read-out: TD50
[22] = tested on: Human immunodeficiency virus 1; assay: Antiviral activity against HIV-1 IIIB infected in human C8166 cells assessed as reduction in viral replication measured for 3 days; type: functional; details: Human immunodeficiency virus 1, IIIB, C8166, 72 h; time 3 day; read-out: ED50 (the source's name)
[23] = tested on: Human alphaherpesvirus 1; assay: Antiviral activity against HSV-1 infected in Vero cells by plaque reduction assay; type: functional; details: Human alphaherpesvirus 1, Vero; read-out: ED50 (the source's name)
[24] = tested on: MT4; assay: Cytotoxicity against human MT4 cells; type: functional
[25] = tested on: Human immunodeficiency virus 1; assay: Antiviral activity against wild type HIV-1 IIIB infected in human MT4 cells assessed as protection against virus-induced cytopathic effect incubated for 72 hrs by MTT assay; type: functional, organism-based; details: Human immunodeficiency virus 1, IIIB, MT4, 72 h
[26] = tested on: Human immunodeficiency virus 1; assay: Antiviral activity against HIV-1 infected in human MT4 cells; type: functional, organism-based; details: Human immunodeficiency virus 1, MT4
[27] = target: T1, Human immunodeficiency virus type 1 reverse transcriptase; assay: Inhibition of recombinant HIV-1 reverse transcriptase associated RNA-dependent DNA polymerase activity

CCCNc1nc(C(C)c2c(F)cccc2F)c(C)c(=O)[nH]1 (stereo not drawn)
pIC50 [1]: 7.52 | pEC50 [2]: 7.70 | CC50 [3]: > 200000 nM

CCN(C)c1nc(C(C)c2c(F)cccc2F)c(C)c(=O)[nH]1 (stereo not drawn)
pEC50 [4]: 8.52 | pKi [5]: 5.40 | pKi [6]: 6.30

Cc1c(C(C)c2c(F)cccc2F)nc(N(C)C(C)C)[nH]c1=O (stereo not drawn)
pEC50 [4]: 8.30 | pKi [5]: 5.92 | pKi [6]: 7.10

Cc1c(C(C)c2c(F)cccc2F)nc(N(C)Cc2ccc([N+](=O)[O-])cc2)[nH]c1=O (stereo not drawn)
pEC50 [7]: 8.00 | pEC50 [8]: 6.09 | pEC50 [9]: 6.29 | pEC50 [10]: 6.29

COc1ccc(CN(C)c2nc(C(C)c3c(F)cccc3F)cc(=O)[nH]2)cc1 (stereo not drawn)
pEC50 [7]: 8.70 | pIC50 [11]: 5.98 | pEC50 [8]: 5.79 | pEC50 [9]: 8.52 | pEC50 [12]: 8.00

COc1ccc(CN(C)c2nc(C(C)c3c(F)cccc3F)c(C)c(=O)[nH]2)cc1 (stereo not drawn)
pEC50 [7]: 8.52 | pEC50 [8]: 7.10 | pEC50 [9]: 6.99 | pEC50 [10]: 6.99

CCCN(C)c1nc(C(C)c2c(F)cccc2F)c(C)c(=O)[nH]1 (stereo not drawn)
pEC50 [4]: 8.30 | pKi [5]: 5.84 | pKi [6]: 6.77

CCC(C)Sc1nc(O)cc(Cc2cccc3ccccc23)n1 (stereo not drawn)
selectivity ratio [13]: > 909 | CC50 [14]: > 300000 nM | pEC50 [15]: 6.48

CCOC1CSc2nc(=O)c(CC)c(Cc3cc(C)cc(C)c3)n21 (stereo not drawn)
pEC50 [16]: 6.15

CCC(C)Sc1nc(Cc2cc(C)cc(C)c2)c(Br)c(=O)[nH]1 (stereo not drawn)
pEC50 [17]: 5.17 | CC50 [18]: 153000 nM

C=CCc1c(Cc2cc(C)cc(C)c2)nc(SCC2OCCC(C)O2)[nH]c1=O (stereo not drawn)
pEC50 [17]: 6.26 | CC50 [18]: > 100000 nM

Nc1cc(Cl)nc(Sc2ccccc2)n1
CC50 [19]: 207000 nM

COc1ccc(CNc2nc(C(C)c3c(F)cccc3F)cc(=O)[nH]2)cc1 (stereo not drawn)
pEC50 [7]: 8.52 | pIC50 [11]: 5.30 | pEC50 [8]: 7.22 | pEC50 [9]: 5.65 | pEC50 [12]: < 5.30

CCCCOc1nc(Cc2ccc(OC)cc2)cc(=O)[nH]1
CC50 at 72 h [20]: 100 µg/mL (≈ 347 µM) | CC50 at 72 h [21]: 100 µg/mL (≈ 347 µM) | EC50 [22]: 25 µg/mL (≈ 86.7 µM) | EC50 [23]: 50 µg/mL (≈ 173 µM)

COc1cccc(Sc2nc(Cc3cc(C)cc(C)c3)c(C)c(=O)[nH]2)c1
CC50 [24]: > 100000 nM | pEC50 [25]: 5.80

CCc1c(Cc2cc(C)cc(C)c2)nc2n(c1=O)COCCS2
pEC50 [16]: 5.80

CCC(C)Sc1nc(Cc2cc(C)cc(C)c2)cc(=O)[nH]1 (stereo not drawn)
pEC50 [17]: 5.92 | CC50 [18]: 150000 nM

COc1ccc(Cc2cc(N)nc(OC)n2)cc1
CC50 at 72 h [20]: 50 µg/mL (≈ 204 µM) | CC50 at 72 h [21]: 50 µg/mL (≈ 204 µM) | EC50 [22]: 12.5 µg/mL (≈ 51 µM) | EC50 [23]: 25 µg/mL (≈ 102 µM)

Cc1c(C(C)c2c(F)cccc2F)nc(NC2CCCCC2)[nH]c1=O (stereo not drawn)
pIC50 [1]: 7.46 | pEC50 [2]: 7.70 | CC50 [3]: 90000 nM

CSCCSc1nc(C2(c3c(F)cccc3F)CC2)c(C)c(=O)[nH]1
selectivity ratio [13]: 2330 | CC50 [24]: 14000 nM | pEC50 [26]: 8.30

Cc1ccccc1Cc1nc(SC2CCCCC2)[nH]c(=O)c1C
pIC50 [27]: 5.89 | selectivity ratio [13]: > 506 | CC50 [14]: > 304000 nM | pEC50 [15]: 6.22

CCc1c(Cc2cc(C)cc(C)c2)n2c(nc1=O)SCCOC2
pEC50 [16]: 6.22

COc1ccc(C2CC2CNc2nc(C(C)c3c(F)cccc3F)cc(=O)[nH]2)cc1 (stereo not drawn)
pEC50 [7]: 9.00 | pIC50 [11]: 6.06 | pEC50 [8]: 7.00 | pEC50 [9]: 6.89 | pEC50 [12]: < 5.30

— ChEMBL document CHEMBL6115028, “An Amazing 30-Year Journey around the DABO Family: A Medicinal Chemistry Lesson on a Versatile Class of Non-nucleoside HIV-1 Reverse Transcriptase Inhibitors” (J Med Chem, 2025)
